According to PMC12396409, “Screening and hit evaluation of a microbial metabolite library against the pathogenic Plasmodium falciparum and Toxoplasma gondii parasites” (International Journal for Parasitology: Drugs and Drug …, 2025):
Read-outs that look alike come from different tables or passages of the source.

Experiments:
[1] = tested on: P. falciparum 3D7 parasites; assay: P. falciparum growth inhibition assay, 1-cycle (72 h treatment), SYBR DNA staining (library screen at 2 μg/mL and dose-response); assay type: cell-based, Plasmodium falciparum
[2] = tested on: P. falciparum 3D7 parasites; assay: P. falciparum growth inhibition assay, 2-cycle (120 h treatment), delayed-death screen and dose-response; assay type: cell-based, Plasmodium falciparum; details: for 3) Fold change (72 h/120 h): growth at 72 h / growth at 120 h
[3] = tested on: T. gondii RH strain (RH-Tub-eYFP) tachyzoites; assay: microbe, parasite or virus in culture; assay type: cell-based, Toxoplasma gondii; details: 72 h, 72 h; for percent parasite growth at 2 µg/mL: Toxoplasma gondii
[4] = Plasmodium falciparum, 3D7, P. falciparum, 72 h, screen at 2 μg/mL, replicate 1, read-out: Pf_72h_%Growth_Rep1
[5] = Plasmodium falciparum, 3D7, P. falciparum, 72 h, screen at 2 μg/mL, replicate 2, read-out: Pf_72h_%Growth_Rep2
[6] = Plasmodium falciparum, 3D7, P. falciparum, 120 h, screen at 2 μg/mL, replicate 1, read-out: Pf_120h_%Growth_Rep1
[7] = Plasmodium falciparum, 3D7, P. falciparum, 120 h, screen at 2 μg/mL, replicate 2, read-out: Pf_120h_%Growth_Rep2
[8] = T. gondii, screen at 2 μg/mL, replicate 1, read-out: Tg_72h_%Growth_Rep1
[9] = T. gondii, screen at 2 μg/mL, replicate 2, read-out: Tg_72h_%Growth_Rep2
[10] = P. falciparum, 72 h, screen at 2 μg/mL, replicate 1
[11] = P. falciparum, 72 h, screen at 2 μg/mL, replicate 2
[12] = P. falciparum, 120 h, screen at 2 μg/mL, replicate 1
[13] = P. falciparum, 120 h, screen at 2 μg/mL, replicate 2
[14] = T. gondii, screen at 2 μg/mL, replicate 1
[15] = T. gondii, screen at 2 μg/mL, replicate 2
[16] = T. gondii, 2 μg/mL, values are growth (% of control)
[17] = library screen at 2 μg/mL, 72 h, % growth, replicate 1
[18] = library screen at 2 μg/mL, 72 h, % growth, replicate 2
[19] = library screen at 2 μg/mL, 120 h, % growth, replicate 1
[20] = library screen at 2 μg/mL, 120 h, % growth, replicate 2
[21] = library screen at 2 μg/mL, % growth, replicate 1
[22] = library screen at 2 μg/mL, % growth, replicate 2

Compound `COC(=O)[C@]1(Cc2ccc3c(c2)C[C@H](O)C(C)(C)O3)OC(=O)C(O)=C1c1ccc(O)cc1` [Butyrolactone V] has an activity at 2 µg/mL [1, 4] of 83.9%, an activity at 2 µg/mL [1, 5] of 90.6% and an activity at 2 µg/mL [2, 6] of 100%. It also gave an activity at 2 µg/mL [2, 7] of 94.5%, a percent parasite growth at 2 µg/mL [3, 8] of 130% and a percent parasite growth at 2 µg/mL [3, 9] of 90%.
With `CS(=O)(=O)c1ccc([C@@H](O)[C@@H](CO)NC(=O)C(Cl)Cl)cc1` [Thiamphenicol, reference compound] the activity at 2 µg/mL ([1]; Plasmodium falciparum, 3D7; P. falciparum, 2 μg/mL, 72 h; read-out: 1) Growth (%) at 72 h) was 49.5%, the activity at 2 µg/mL [1, 4] was 37.6% and the activity at 2 µg/mL [1, 5] was 61.4%. For the same compound, the “3) Fold change (72 h/120 h)” value ([2]; P. falciparum, 2 μg/mL) was 2.5, the activity at 2 µg/mL ([2]; Plasmodium falciparum, 3D7; P. falciparum, 2 μg/mL, 120 h; read-out: 2) Growth (%) at 120 h) was 19.8% and the activity at 2 µg/mL [2, 6] was 27.2%. It also gave an activity at 2 µg/mL [2, 7] of 12.3%, a percent parasite growth at 2 µg/mL [3, 8] of 106% and a percent parasite growth at 2 µg/mL [3, 9] of 98%.
With `Cn1ncnc2c(=O)n(C)c(=O)nc1-2` [Toxoflavin] the Pf_72h_%Growth_Rep1 [1, 10] was 6.97%, the Pf_72h_%Growth_Rep2 [1, 11] was -1.92% and the Pf_120h_%Growth_Rep1 [2, 12] was 16.11%. It also gave a Pf_120h_%Growth_Rep2 [2, 13] of 20.32%, a Tg_72h_%Growth_Rep1 [3, 14] of 3.96% and a Tg_72h_%Growth_Rep2 [3, 15] of 6.88%.
With `CCCC(=O)O[C@H]1[C@H](C)O[C@@H](O[C@H]2[C@H](N(C)C)[C@@H](O)[C@H](O[C@H]3[C@@H](CC=O)C[C@@H](C)[C@@H](O)/C=C/C=C/C[C@@H](C)OC(=O)C[C@@H](OC(C)=O)[C@@H]3OC)O[C@@H]2C)C[C@@]1(C)O` [Leucomycin A4] the “1) Growth (%) at 72 h” value ([1]; P. falciparum, 2 μg/mL, 72 h) was 46.88%, the “2) Growth (%) at 120 h” value ([2]; P. falciparum, 2 μg/mL, 120 h) was 1.51% and the “3) Fold change (72 h/120 h)” value ([2]; P. falciparum, 2 μg/mL) was 31.0. For the same compound, the Mean ([3]; T. gondii, 2 μg/mL, mean of both replicates, growth (% of control)) was 23.43, the “Replicate 1” value [3, 16] was 19.43 and the “Replicate 2” value [3, 16] was 27.43.
`NC(=O)C#CC(N)=O` [Cellocidin] was tested, and the Pf_72h_%Growth_Rep1 [1, 10] was 102.17%, the Pf_72h_%Growth_Rep2 [1, 11] was 89.58% and the Pf_120h_%Growth_Rep1 [2, 12] was 151.65%. The Pf_120h_%Growth_Rep2 [2, 13] was 95.14%, the Tg_72h_%Growth_Rep1 [3, 14] was 79.59% and the Tg_72h_%Growth_Rep2 [3, 15] was 92.91%.
`Cc1cc(O)c(C)c(O)c1C(=O)Oc1c(C)c(C)c(C(=O)Oc2c(C)c(C)c(C(=O)O)c(O)c2C)c(O)c1C` [Thielavin A] showed an IC50 ([1]; 3D7, 72 h treatment, mean ± S.D., n ≥ 3, read-out: IC50 (μM), P. falciparum) greater than 1 µM, a Pf_72h_%Growth_Rep1 [1, 10] of 46.40% and a Pf_72h_%Growth_Rep2 [1, 11] of 70.42%. It also gave a Pf_120h_%Growth_Rep1 [2, 12] of 119.92%, a Pf_120h_%Growth_Rep2 [2, 13] of 51.57% and a Tg_72h_%Growth_Rep1 [3, 14] of 89.38%. The Tg_72h_%Growth_Rep2 [3, 15] was 91.04%.
In the case of `CC1=CC2C(O)CCCC2C(C)(C(O)=C2C(=O)CNC2=O)C1CCC(C)C(O)/C(C)=C/CC(O)/C=C/C(C)C(O)/C=C/CC(O)/C=C/CC(O)CC1CCCN1C(=N)N` (stereo not shown) [TPU-0037C], the Pf_72h_%Growth_Rep1 [1, 10] was 76.69%, the Pf_72h_%Growth_Rep2 [1, 11] was 109.21% and the Pf_120h_%Growth_Rep1 [2, 12] was 83.44%. For the same compound, the Pf_120h_%Growth_Rep2 [2, 13] was 78.76%, the Tg_72h_%Growth_Rep1 [3, 14] was 129.91% and the Tg_72h_%Growth_Rep2 [3, 15] was 76.44%.
With `CC[C@H](C)[C@H]1O[C@]2(C=C[C@@H]1C)C[C@@H]1C[C@@H](C/C=C(\C)[C@@H](O[C@H]3C[C@H](OC)[C@@H](O[C@H]4C[C@H](OC)[C@@H](O)[C@H](C)O4)[C@H](C)O3)[C@@H](C)/C=C/C=C3\CO[C@@H]4[C@H](O)C(C)=C[C@H](C(=O)O1)[C@]34O)O2` [Avermectin B1a, epi-] the Pf_72h_%Growth_Rep1 [1, 17] was 8.49%, the Pf_72h_%Growth_Rep2 [1, 18] was 20.73% and the Pf_120h_%Growth_Rep1 [2, 19] was 5.66%. It also gave a Pf_120h_%Growth_Rep2 [2, 20] of -2.43%, a Tg_72h_%Growth_Rep1 [3, 21] of 34.09% and a Tg_72h_%Growth_Rep2 [3, 22] of 40.50%.
Work on `CS(=O)(=O)c1ccc([C@@H](O)[C@H](N)CF)cc1` [Florfenicol amine] yielded a Pf_72h_%Growth_Rep1 [1, 17] of 83.39%, a Pf_72h_%Growth_Rep2 [1, 18] of 89.53% and a Pf_120h_%Growth_Rep1 [2, 19] of 94.89%. For the same compound, the Pf_120h_%Growth_Rep2 [2, 20] was 93.06%, the Tg_72h_%Growth_Rep1 [3, 21] was 102.85% and the Tg_72h_%Growth_Rep2 [3, 22] was 100.85%.
